Measured values reported in US20260207637A1, “MODULATOR FOR PROMOTING BINDING OF BUTYROPHILIN 3A1/2A1” (priority 2023, published 2026).

Tests used:
[1] = Binding rate test of compounds and human plasma protein (equilibrium dialysis); assay type: in vitro ADME; settings: human plasma, equilibrium dialysis 6 hours, 37° C.
Procedure: (§1) (1) The dry dialysis membrane was soaked with ultrapure water for 20 min or more than 20 min, then soaked with 20% ethanol for 30 min to 1 h, and the membrane was rinsed with ultrapure water 2-3 times. Finally, the membrane was soaked with ultrapure water for 20 minutes for later use.
(§2) (2) The frozen plasma was thawed in a water bath at 37° C.
(§3) (3) The test compound was diluted into plasma preheated to 37° C. at a final concentration of 1 μM, and the final concentration of the control compound warfarin in plasma was 2 μM.
(§4) (4) The pre-treated dialysis membrane was assembled into the dialysis plate according to the specification of the product, and 120 μL of the receiving solution (100 mM phosphate buffer solution added 0.002% Tween 80) was added to one side of the permeable membrane in each dialysis well.
(§5) (5) 20 μL of each of the final solutions of the test compound and the control compound were added into a 96-well sample plate in duplicate, and the TO sample was obtained, which was stored in a refrigerator at −20° C. Another 20 μL of the above final solution was added to the other side of the membrane in the dialysis device in duplicate, and incubated at 37° C. by shaking at constant temperature for 6 hours.
(§6) (6) After 6 hours of incubation, 20 L of each of the dialyzed receiving solution and the administered plasma were weighed to obtain sample B and sample A in duplicate. The corresponding volume of corresponding blank plasma or receiving solution was added to sample B and sample A, respectively, so that the volume ratio of plasma to buffer in each sample well was 1:1. 300 μL of acetonitrile solution containing internal standard was added to all sample wells, and centrifuged after mixed uniformly.
(§7) (7) 200 μL of ultrapure water (150 μL for the control group) was added into the corresponding sample wells of the 96-well sample plate, and 300 μL of the supernatant (150 μL for the control group) was added into the sample well; the samples were analyzed after mixed uniformly. The free percentage and recovery rate of the compound in plasma were calculated using the following formula: Plasma protein binding rate (%)=1−free percentage, wherein free percentage (%)=CB/CA
(§8) wherein CB is the concentration of the compound in the receiving solution after equilibrium dialysis, CA is the concentration of the compound in the drug-dosed plasma after equilibrium dialysis, and CT0 is the initial concentration of the compound in plasma.

[2] = Stability experiment of compounds in human liver microsomes; assay type: in vitro ADME; settings: NADPH, 37° C.
Procedure: Compounds were prepared as a 10 mM stock solution with DMSO and then diluted with 80% acetonitrile-water to a 100 μM working solution for later use. Human liver microsomes were obtained from BIOIVT.
(1) The liver microsomes taken out from the refrigerator were placed in a 37° C. water bath thermostatic oscillator, pre-incubated for 5 min, and thawed for later use.
(2) A certain amount of NADPH was weighed and added to an appropriate amount of magnesium chloride solution to dissolve into a 2 mM solution for later use.
(3) A mixed solution of the warm incubation system (containing no β-NADPH) was prepared according to the proportions in the “composition of the experimental warm incubation system” above and dispensed at 165 μL/tubes (45 μL/tube for the negative control group and 120 μL/tube for the positive control group).
(4) For the sample at 0 min: 200 μL of internal standard working precipitant was added and then 30 μL of NADPH solution was added.
(5) For other samples: 135 μL NADPH solution was added to initiate the reaction (45 μL magnesium chloride solution was added for the negative control group), and incubated in a 37° C. water bath for 5, 15, 30, and 60 min (incubated in a 37° C. water bath for 60 min for the negative control group), then 60 μL was sampled and added to 200 µL of precipitant containing internal standard.
(6) For the positive control group: 90 L NADPH solution was added to initiate the reaction, and incubated in a 37° C. water bath for 5, 15 min, then 60 μL was sampled and added to 200 μL of precipitant containing internal standard.
(7) For neat sample: 297 μL of water was pipetted into a tube, 1000 μL of internal standard working solution was added, and 3 μL of test compound working solution was added.
(8) All samples were vortexed and centrifuged.
(9) 150 μL of the supernatant was sampled and added to 150 μL of water, mixed uniformly by vortex, and analyzed by LC-MS/MS. The half-life stability data of human liver microsomes is as follows: […]

[3] = Stability experiment of compounds in human whole blood; assay type: in vitro ADME; settings: 37° C., 0-4 h
Procedure: • (1) An appropriate amount of blank whole blood was added into an EP tube containing sodium heparin, then added the working solution of the test substance to a final concentration of 1 μM, and mixed by vortex; • (2) The sample was placed in a water bath at 37° C. with two parallel experiments; for one experiment, the time points were 0 h, 0.5 h, 1 h, 2 h, and 4 h; another experiment was performed to obtain the absolute zero point, which was compared with the 0 h point. • (3) An appropriate amount of sample was taken out from the incubation system, to which 300 μL of internal standard precipitant was added for protein precipitation; (4) all samples were centrifuged at 6° C. for 10 min (15700×g). • (5) 150 μL of the supernatant was taken out, to which 150 μL of water was added, which was mixed by vortex, and analyzed by LC-MS/MS. The stability data of compounds in human whole blood is as follows: […]

[4] = system: human plasma protein; experiment: Binding rate test of compounds and human plasma protein (equilibrium dialysis); assay type: in vitro ADME; settings: 1 μM, equilibrium dialysis 6 hours, 37° C.
Procedure: as §1, §2, §3, §4, §5, §6, §7, §8

[5] = Pharmacokinetic test in cynomolgus monkeys; assay type: in vivo; settings: IV 2 mg/kg
Procedure: The control compound 2 and compound 19 were formulated into 1 mg/mL solution in 10% DMSO/90% PBS. Cynomolgus monkeys were obtained from Suzhou Leo Bio Technology Co., Ltd. The control compound 2 and compound 19 were administered intravenously at 2 mg/kg, respectively. The blood collected before administration was recorded as zero point. Then 1 mL of blood was collected at eight time points: 0.083, 0.15, 0.5, 1.0 2.0, 4.0, 8.0, and 24.0, respectively. 1 mL of the collected whole blood was placed in a labeled EDTA-2K anticoagulant tube. After gently inverting up and down to fully mix the anticoagulant (EDTA-2K) with the blood, it was immediately placed in wet ice and centrifuged within 30 minutes to separate the plasma. The centrifugation conditions were set to 4° C., 2200 g, and 6 min. The plasma separated after centrifugation was placed in a labeled EP tube, and the content of compound 19 and control compound 2 in the plasma samples at different time points were detected and analyzed. There were 3 male cynomolgus monkeys in each group.

Compound	fraction unbound at 6 h, 1 μM [1]	half-life ([2]; read-out: T1/2 in human liver microsomes) [min]	half-life at 1 μM ([3]; whole blood (sodium heparin), read-out: T1/2 in human whole blood (converted)) [min]	human plasma protein binding rate [4] [%]	Plasma concentration of the unchanged drug ([5]; 5 min) [ng/mL]	Plasma concentration of the unchanged drug ([5]; 9 min) [ng/mL]	Plasma concentration of the unchanged drug ([5]; 30 min) [ng/mL]	Plasma concentration of the unchanged drug ([5]; 1 h) [ng/mL]	AUC0-t (AUClast) ([5]; average) [ng·h/mL]	AUC0-t/AUC0-inf ([5]; average)	Cl (Cl_obs) ([5]; average) [mL/min/kg]	T1/2 in human liver microsomes [2] [min]	T1/2 in human whole blood ([3]; 1 μM) [h]
C/C(=C\CCP(=O)(N[C@@H](C)C(=O)OC(C)C)Oc1ccccc1)CO (stereo partly drawn) [Control compound 1, Isopropyl (((E)-5-hydroxy-4-methylpent-3-en-1-yl)(phenoxy)phosphoryl)-L-alaninate, reference compound]	0.073	8.7	> 480										
C/C(=C\CC[P@@](=O)(N[C@@H](C)C(=O)O[C@@H]1CCOC1)Oc1ccccc1)CO [Compound 19, (R)-tetrahydrofuran-3-yl ((S)-((R)-5-hydroxy-4-methylpent-3-en-1-yl)(phenoxy)phosphoryl)-L-alaninate]				64.6	1370	878	139	12	426	0.959	76.3	47.8	>8
